PubChem BioAssay (NCI)
“And” between values parts separate entries of the source, which are not always exact repeats. Equal values may be shown once.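 How tested: cells in 96-well plates exposed to compound for 48 hours at five concentrations. Here, GI50 denotes the concentration required for 50% inhibition of growth. TGI is the concentration that stops growth completely.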

Legend:
Assay in all cases: NCI tumour cell line growth inhibition, 48 h
SNB-75 CNS = test system: SNB-75 CNS
MDA-MB-231 breast = test system: MDA-MB-231 breast
OVCAR-3 ovarian = test system: OVCAR-3 ovarian
SK-MEL-5 melanoma = test system: SK-MEL-5 melanoma
CAKI-1 renal = test system: CAKI-1 renal
DU-145 prostate = test system: DU-145 prostate
OVCAR-8 ovarian = test system: OVCAR-8 ovarian
KM12 colon = test system: KM12 colon

| Compound | TGI (SNB-75 CNS) | TGI (MDA-MB-231 breast) | TGI (OVCAR-3 ovarian) | TGI (SK-MEL-5 melanoma) | TGI (CAKI-1 renal) | TGI (DU-145 prostate) | TGI (OVCAR-8 ovarian) | GI50 (SNB-75 CNS) | GI50 (MDA-MB-231 breast) | GI50 (OVCAR-3 ovarian) | GI50 (SK-MEL-5 melanoma) | GI50 (KM12 colon) | TGI (KM12 colon) | GI50 (CAKI-1 renal) | GI50 (DU-145 prostate) | GI50 (OVCAR-8 ovarian) |
| --- | --- | --- | --- | --- | --- | --- | --- | --- | --- | --- | --- | --- | --- | --- | --- | --- |
| COc1c2ccoc2cc2oc(=O)ccc12 | > 100 µM | > 100 µM | > 100 µM | > 100 µM | > 100 µM | > 100 µM | > 100 µM | – | – | – | – | – | – | – | – | – |
| CCc1c2c(nc3cc4c(c(N)c13)OCO4)-c1cc3c(c(=O)n1C2)COC(=O)[C@]3(O)CC | – | > 100 µM | > 100 µM | 0.0222 µM and 0.101 µM | 0.00741 µM | > 100 µM | 14.7 µM | < 0.001 µM | 0.0246 µM and 0.0488 µM | 0.278 µM and 0.264 µM | < 0.001 µM | 0.133 µM and 0.0578 µM | 1.66 µM | < 0.001 µM | < 0.001 µM | – |
| CCCCCCCCCCCCNC(=O)[C@H]1CSC(c2cc3ccccc3s2)N1 (stereo partly drawn) | 1.12 µM | 1.46 µM | 9.5 µM | 8.72 µM | 6.4 µM | 4.19 µM | 8.53 µM | 0.599 µM | 0.706 µM | 3.79 µM | 4.34 µM | 1.1 µM | 3.55 µM | 2.09 µM | 1.21 µM | 2.23 µM |
| Cc1ccc2c(c1)C(C)Cc1c(ncnc1-n1cnc3cc(C)ccc31)N2C (stereo not drawn) | 13.4 µM | 13.4 µM | – | 0.165 µM | 12.4 µM | 11.1 µM | 15.8 µM | 0.0262 µM | 0.0416 µM | – | 0.0324 µM | 0.0368 µM | 12.2 µM | 0.0407 µM | 0.0379 µM | 0.037 µM |
| C=CCCCn1ccc2ccccc21 | > 100 µM | – | > 100 µM | > 100 µM | – | – | > 100 µM | – | – | – | – | – | > 100 µM | – | – | – |
| NC(=O)C1c2ccccc2C=Cc2ccccc21 | > 100 µM | > 100 µM | > 100 µM | > 100 µM | > 100 µM | > 100 µM | > 100 µM | > 100 µM | > 100 µM | > 100 µM | > 100 µM | > 100 µM | > 100 µM | > 100 µM | > 100 µM | > 100 µM |
| NC(=O)/C(=C\c1ccncc1)c1cccc2ccccc12 | > 100 µM | > 100 µM | > 100 µM | > 100 µM | > 100 µM | > 100 µM | > 100 µM | – | – | – | – | – | > 100 µM | – | – | – |
| O=C(CSc1nc2ccccc2nc1-c1ccccc1)Nc1ccc(Cl)cc1 | 59.4 µM | > 100 µM | 40.3 µM | > 100 µM | 38.1 µM | > 100 µM | > 100 µM | 18.7 µM | 30.5 µM | 13.1 µM | 19.3 µM | 59.4 µM | > 100 µM | 12.5 µM | 55.4 µM | 25.5 µM |
| COc1cc2c(c(OC)c1O)-c1ccc(OC)c(=O)cc1[C@@H](NC(=O)C(F)(F)F)CC2 | – | 0.628 µM | 0.151 µM | 0.0668 µM | > 100 µM | > 100 µM | > 100 µM | – | – | – | – | – | > 100 µM | – | – | – |
| COc1ccc(CCN2CCCN3C2=Nc2ccccc2S3(=O)=O)cc1 | > 100 µM | > 100 µM | – | 16.4 µM | > 100 µM | > 100 µM | > 100 µM | 0.296 µM | 1.68 µM | – | 0.357 µM | 0.451 µM | > 100 µM | 0.73 µM | 0.496 µM | 0.802 µM |
| CN[C@@H](C)C(=O)N[C@H]1CN(C(=O)CC(C)C)CC[C@H]2CC[C@@H](C(=O)NC(c3ccccc3)c3ccccc3)N2C1=O | > 100 µM | 5.7 µM | > 100 µM | > 100 µM | > 100 µM | > 100 µM | > 100 µM | 15.7 µM | 0.642 µM | > 89.7 µM | 41.9 µM | > 100 µM | > 100 µM | > 100 µM | > 100 µM | 61.6 µM |
| O=c1[nH]cc(/C=N\Nc2ccccc2)c(=O)[nH]1 | > 100 µM | > 100 µM | > 100 µM | > 100 µM | > 100 µM | > 100 µM | > 100 µM | – | – | – | – | – | > 100 µM | – | – | – |
| CNC(=O)c1c(NC(=O)c2ccc(C(F)(F)F)cc2)sc2c1CCC(=O)C2 | 3.95 µM | 2.51 µM | 3.29 µM | 2.58 µM | 1.88 µM | > 100 µM | > 37.1 µM | 0.714 µM | 0.529 µM | 0.812 µM | 1.11 µM | 0.668 µM | 2.46 µM | 0.388 µM | 4.18 µM | 0.466 µM |
| NC(=NCCCC1(c2ccccc2)CCCC1)Nc1ccc(Cl)cc1 | 2.31 µM | 3.14 µM | 3.35 µM | 2.93 µM | 3.94 µM | 3.29 µM | 3.8 µM | 1.07 µM | 1.6 µM | 1.82 µM | 1.58 µM | – | – | 1.93 µM | 1.8 µM | 1.9 µM |
| N=C(N)/N=C(\N)c1c(-c2cc(O)ccc2O)nc2sccn12 | – | 39.8 µM | 54.8 µM | > 100 µM | 39.3 µM | 30.5 µM | > 100 µM | – | 18.9 µM | 21.8 µM | > 100 µM | 34.8 µM | > 100 µM | 20.1 µM | 16.8 µM | 59.9 µM |
| C#CCSc1n[nH]c(-c2ccco2)n1 | > 100 µM | > 100 µM | > 100 µM | > 100 µM | > 100 µM | > 100 µM | > 100 µM | – | – | – | – | – | > 100 µM | – | – | – |
| O=C1/C=C/[C@@H](O)[C@@H]2C[C@@H](O)C[C@H]2/C=C/CCC[C@H](CCc2ccc(C(F)(F)F)cc2)O1 | 32.5 µM | 0.368 µM | 0.69 µM | 0.0647 µM | > 100 µM | > 100 µM | > 100 µM | 0.0544 µM | 0.185 µM | 0.264 µM | 0.0257 µM | – | – | 0.312 µM | 0.479 µM | 0.219 µM |
| COC(=O)NC1(NC(=O)OC)NC(=O)c2cc(OC)c(OC)cc2N1 | – | – | 67.6 µM | > 100 µM | 61.9 µM | > 100 µM | > 100 µM | – | – | – | – | – | > 100 µM | – | – | – |
